Laboratory results as given in PMC6944710, “In vitro and in silico insights into tyrosinase inhibitors with (E)-benzylidene-1-indanone derivatives” (Computational and Structural Biotechnology Journal, 2019).
“Also recorded” adds a separate entry of the source. Read-outs that look alike come from different tables or passages of the source.

What was measured:
mushroom tyrosinase [1] = experiment: Mushroom tyrosinase inhibitory assay (L-tyrosine or L-DOPA as substrate); assay type: biochemical, Agaricus bisporus; details: for IC50: mean ± SEM of triplicate experiments; for Tyrosinase inhibitory activity (in words) / Inhibitory effect at the concentration of 200 µM: mushroom tyrosinase; for Tyrosinase inhibitory activity (in words): L-tyrosine and L-DOPA
Procedure: Tyrosinase inhibitory activity assay was performed using mushroom tyrosinase as described previously, with minor modification, [36]. […] […] The reaction mixtures were incubated at 37 °C for 30 min. After that, the amount of dopachrome produced in each well was measured by spectrophotometric analysis at 492 nm (OD492) using a microplate reader.

mushroom tyrosinase [2] = experiment: Enzyme kinetic analysis with tyrosinase (Lineweaver-Burk and Dixon plots); assay type: biochemical, Agaricus bisporus; details: L-DOPA as substrate
Procedure: To determine the kinetic mechanisms of inhibition, two complimentary kinetics methods were used: Lineweaver–Burk and Dixon plots, [38], [39]. Using Lineweaver-Burk plots (double reciprocal plots), the inhibition type of BID3 was determined using various concentrations of L-DOPA (0.125, 0.25, 0.5, and 1 mM), as substrates, in the absence and presence of various concentrations of BID3 (1, 2, and 4 μM). A Dixon plot (single reciprocal plots) for tyrosinase inhibition was obtained in the presence of various concentrations of L-DOPA (0.125, 0.25, 0.5, and 1 mM). The concentrations of BID3 were 1, 2, and 4 µM. The enzymatic procedures consisted of the previously described tyrosinase assay methods. The inhibition constant (Ki) was determined from the interpretation of Dixon plots.

B16F10 melanoma cells [3] = experiment: Cell viability assay (EZ-Cytox); assay type: cell-based, Murine; details: 1–20 µM, 24 h and 48 h
Procedure: Murine melanoma B16F10 cells were purchased from the Korean Cell Line Bank (KCLB, Seoul, Korea) and cultured in DMEM supplemented with 10% FBS and 1% streptomycin, and then incubated at 37 °C, humidified with 5% atmospheric CO2. Cell viability analyses were performed as previously described. Briefly, cells seeded at a density of 1 × 10^4 cells/well in a 96-well plate for 24 h. On the following day, the cells were exposed to different concentrations of BID3 and incubated for 24 or 48 h, respectively. Then, 10 µL EZ-Cytox solution was added to each well and the cells were incubated for 2–4 h. Absorbance was determined using ELISA at a wavelength of 450 nm. Each assay was performed in triplicate.

B16F10 melanoma cells [4] = experiment: Melanin contents assay in α-MSH and IBMX-stimulated cells; assay type: cell-based, Murine; details: BID3 1, 5, and 20 µM (methods: 1, 5, and 10 µM), 48 h
Procedure: Melanin content was determined as described previously. B16F10 melanoma cells (2 × 10^5 cells/well) were seeded in 6-well culture plates. […] After washed twice with PBS, the cells were detached by incubation in Trypsin/EDTA, and the pellets were dissolved in 100 µL of 1 N NaOH, and then incubated at 60 °C for 1 h and mixed to solubilize the melanin. The melanin contents were determined by measuring absorbance at 405 nm by using the ELISA reader (TECAN, Sunrise, Austria). The melanin content was calculated using the following equation: (Δsample/Δcontrol) × 100%. All determinations were performed in triplicate.

[5] = molecular target: T1, cellular tyrosinase of B16F10 cells (Mus musculus, UniProt P11344); experiment: Cellular tyrosinase activity in α-MSH and IBMX-stimulated cells; assay type: cell-based, Murine; details: BID3 1, 5, and 20 µM (methods: 1, 5, and 10 µM), 48 h
T1 construct: endogenous in cells; host or cells: B16F10 melanoma cells
T1 sequence (P11344 19-533): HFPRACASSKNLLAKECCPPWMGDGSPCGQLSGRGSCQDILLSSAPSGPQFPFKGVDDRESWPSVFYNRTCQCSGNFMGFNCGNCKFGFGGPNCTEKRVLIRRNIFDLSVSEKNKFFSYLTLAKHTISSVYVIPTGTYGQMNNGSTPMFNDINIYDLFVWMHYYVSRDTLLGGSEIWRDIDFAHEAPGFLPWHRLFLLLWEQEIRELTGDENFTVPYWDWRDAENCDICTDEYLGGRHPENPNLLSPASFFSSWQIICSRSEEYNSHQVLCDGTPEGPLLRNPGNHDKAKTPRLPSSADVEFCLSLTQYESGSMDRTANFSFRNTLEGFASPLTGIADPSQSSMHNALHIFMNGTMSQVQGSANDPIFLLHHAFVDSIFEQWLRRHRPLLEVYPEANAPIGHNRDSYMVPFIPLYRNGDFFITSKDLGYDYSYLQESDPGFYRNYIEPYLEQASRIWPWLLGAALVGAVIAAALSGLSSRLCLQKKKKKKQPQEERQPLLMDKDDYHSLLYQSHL
Procedure: Cellular tyrosinase activity was assessed as described previously, with slight modifications, [45]. Briefly, 2 × 10^5/cells were plated in 6-well dishes and incubated overnight. […] After being rinsed twice with PBS, the cells were lysed with 100 µL lysis solution containing 50 mM phosphate buffer (pH 6.5), 0.1 mM phenylmethylsulfonylfluoride (PMSF), and 1% Triton X-100 and frozen at −80 °C for 30 min. Lysates were thawed and centrifuged at 12,000 rpm for 30 min at 4 °C. […] After incubation at 37 °C for 30 min, the optical density at 492 nm was measured using an ELISA reader (TECAN, Salzburg, Austria). The protein concentration was determined using BCA protein assay reagent using […] (Thermo Scientific, Rockford, IL, USA).

tyrosinase = details: cited from earlier work
[6] = L-DOPA substrate, read-out: IC50 (μM), L-DOPA as substrate (diphenolase activity)
[7] = L-tyrosine substrate, read-out: IC50 (μM), L-tyrosine as substrate (monophenolase activity)

Row | SMILES | IC50 (mushroom tyrosinase [1]; [6]) [µM] | IC50 (mushroom tyrosinase [1]; [7]) [µM] | melting point [°C] | further results
1 | O=C1/C(=C/c2ccc(O)cc2)Cc2ccccc21 [BID1, (E)-2-(4-Hydroxybenzylidene)-2,3-dihydro-1H-inden-1-one] | 130 ± 5.39 | 39.7 ± 3.71 |  | 
2 | O=C1/C(=C/c2ccc(O)c(O)c2)Cc2ccccc21 [BID2, (E)-2-(3,4-Dihydroxybenzylidene)-2,3-dihydro-1H-inden-1-one] | 52.9 ± 2.62 | 41.3 ± 3.03 |  | 
3 | O=C1/C(=C/c2ccc(O)cc2O)Cc2ccccc21 [BID3, (E)-2-(2,4-Dihydroxybenzylidene)-2,3-dihydro-1H-inden-1-one] | 1.39 ± 4e-05 | 0.034 ± 0.00224 |  | Ki (mushroom tyrosinase [2]; Dixon plot): 2.4 µM; Type of tyrosinase inhibition (mushroom tyrosinase [2]; Lineweaver-Burk and Dixon plots): mixed-type inhibition; also recorded: mixed-type inhibitor; Cytotoxic effect on B16F10 cells (B16F10 melanoma cells [3]): no significant cytotoxic effect; also recorded: without inducing cytotoxicity; Melanin contents (B16F10 melanoma cells [4]): decreased; also recorded: concentration dependently decrease; Cellular tyrosinase activity [5]: inhibited; also recorded: concentration dependently decrease
4 | CCOc1cc(/C=C2\Cc3ccccc3C2=O)ccc1O [BID5, (E)-2-(3-Ethoxy-4-hydroxybenzylidene)-2,3-dihydro-1H-inden-1-one] | > 200 | > 200 | 135.8 to 136.4 | 
5 | COc1ccc(/C=C2\Cc3ccccc3C2=O)cc1 [BID7, (E)-2-(4-Methoxybenzylidene)-2,3-dihydro-1H-inden-1-one] | > 200 | > 200 |  | 
6 | COc1ccc(/C=C2\Cc3ccccc3C2=O)c(OC)c1 [BID9, (E)-2-(2,4-Dimethoxybenzylidene)-2,3-dihydro-1H-inden-1-one] | 96.9 ± 9.78 | > 200 |  | 
7 | O=C1/C(=C/c2ccc(O)c(Br)c2)Cc2ccccc21 [BID12, (E)-2-(3-Bromo-4-hydroxybenzylidene)-2,3-dihydro-1H-inden-1-one] | > 200 | > 200 | 225 to 226.2 | 
8 | O=C1/C(=C/c2cc(Br)c(O)c(Br)c2)Cc2ccccc21 [BID13, (E)-2-(3,5-Dibromo-4-hydroxybenzylidene)-2,3-dihydro-1H-inden-1-one] | 75.3 ± 7.94 | > 200 | 267.4 to 268.1 | 
9 | O=C(O)/C=C/c1ccccc1 [Cinnamic acid, trans-cinnamic acid, reference compound] | > 200 | > 200 |  | Inhibitory effect at the concentration of 200 µM (mushroom tyrosinase [1]): no inhibitory effect; Reported type of tyrosinase inhibition (tyrosinase): mixed-mode tyrosinase inhibitor
10 | O=c1cc(CO)occ1O [Kojic acid, kojic acid] |  |  |  | Reported type of tyrosinase inhibition (tyrosinase): competitive type inhibitor
11 | O=C(O)c1ccccc1C(=O)O [Phthalic acid, phthalic acid, reference compound] | > 200 | > 200 |  | Inhibitory effect at the concentration of 200 µM (mushroom tyrosinase [1]): no inhibitory effect; Reported type of tyrosinase inhibition (tyrosinase): mixed-mode tyrosinase inhibitor

Now from value to compound, other results behind:

Row | IC50 (mushroom tyrosinase [1]; [6]) [µM] | IC50 (mushroom tyrosinase [1]; [7]) [µM] | melting point [°C] | SMILES | further results
12 | > 200 | 73.5 ± 5.78 |  | COc1cc(/C=C2\Cc3ccccc3C2=O)ccc1O [BID4, (E)-2-(4-Hydroxy-3-methoxybenzylidene)-2,3-dihydro-1H-inden-1-one] | Tyrosinase inhibitory activity (in words) (mushroom tyrosinase [1]): moderate tyrosinase inhibitory activity
13 | 50.8 ± 2.16 | 5 ± 0.91 |  | COc1ccc(/C=C2\Cc3ccccc3C2=O)cc1O [BID6, (E)-2-(3-Hydroxy-4-methoxybenzylidene)-2,3-dihydro-1H-inden-1-one] | 
14 | > 200 | > 200 | 176.5 to 177.2 | COc1ccc(/C=C2\Cc3ccccc3C2=O)cc1OC [BID8, (E)-2-(3,4-Dimethoxybenzylidene)-2,3-dihydro-1H-inden-1-one] | 
15 | > 200 | > 200 | 164.4 to 165.2 | COc1cc(/C=C2\Cc3ccccc3C2=O)cc(OC)c1OC [BID10, (E)-2-(3,4,5-Trimethoxybenzylidene)-2,3-dihydro-1H-inden-1-one] | 
16 | > 200 | 75.2 ± 2.24 | 190.2 to 191.1 | COc1cc(/C=C2\Cc3ccccc3C2=O)cc(OC)c1O [BID11, (E)-2-(4-Hydroxy-3,5-dimethoxybenzylidene)-2,3-dihydro-1H-inden-1-one] | Tyrosinase inhibitory activity (in words) (mushroom tyrosinase [1]): moderate tyrosinase inhibitory activity
